Experimental findings from ChEMBL document CHEMBL5649166, “RIP3 induces apoptosis independent of pronecrotic kinase activity” (Mol Cell, 2014) are described below.

The target of experiment [1] is T1, Serine/threonine-protein kinase TBK1 (Homo sapiens) (UniProt Q9UHD2).
T1 sequence (whole entry): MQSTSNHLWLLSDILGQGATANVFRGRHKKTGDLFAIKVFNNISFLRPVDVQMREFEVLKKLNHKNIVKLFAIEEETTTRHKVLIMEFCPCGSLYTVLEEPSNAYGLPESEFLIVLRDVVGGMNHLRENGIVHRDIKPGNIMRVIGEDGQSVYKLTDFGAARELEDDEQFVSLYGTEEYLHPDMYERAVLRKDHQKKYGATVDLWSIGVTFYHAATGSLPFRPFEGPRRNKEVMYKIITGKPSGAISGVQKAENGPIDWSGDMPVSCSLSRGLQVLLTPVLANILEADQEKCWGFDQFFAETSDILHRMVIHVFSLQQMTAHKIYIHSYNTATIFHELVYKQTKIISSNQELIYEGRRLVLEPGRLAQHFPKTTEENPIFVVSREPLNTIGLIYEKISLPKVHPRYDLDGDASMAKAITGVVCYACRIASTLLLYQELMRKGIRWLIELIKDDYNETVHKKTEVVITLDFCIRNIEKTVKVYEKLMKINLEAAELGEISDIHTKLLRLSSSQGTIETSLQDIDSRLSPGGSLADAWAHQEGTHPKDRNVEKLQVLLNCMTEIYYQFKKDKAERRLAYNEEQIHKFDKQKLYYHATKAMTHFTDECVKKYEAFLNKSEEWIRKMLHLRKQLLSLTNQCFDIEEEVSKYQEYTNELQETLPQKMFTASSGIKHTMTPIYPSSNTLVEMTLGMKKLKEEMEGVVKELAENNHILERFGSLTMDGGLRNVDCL
As to the kind of experiment: Inhibition of human TBK1 using myelin basic protein as substrate at 1 uM in presence of 32P-ATP by Hotspot assay relative to control; values are per cent of control.

Experiment [2] has as its target Fibroblast growth factor receptor 2 (Homo sapiens) (UniProt P21802). The experiment can be described thus: Inhibition of human FGFR2 using poly[Glu:Tyr] (4:1) as substrate at 1 uM in presence of 32P-ATP by Hotspot assay relative to control; values are per cent of control.
Experiment [3] addresses Focal adhesion kinase 1 (Homo sapiens) (UniProt Q05397). As to the kind of experiment: Inhibition of human FAK/PTK2 using poly[Glu:Tyr] (4:1) as substrate at 1 uM in presence of 32P-ATP by Hotspot assay relative to control; values are per cent of control.
Experiment [4] addresses Mitogen-activated protein kinase kinase kinase 14 (Homo sapiens) (UniProt Q99558). The experiment can be described thus: Inhibition of human NIK/MAP3K14 using at 1 uM in presence of 32P-ATP by Hotspot assay relative to control; values are per cent of control.
The target in experiment [5] is T2, Ephrin type-B receptor 3 (Homo sapiens) (UniProt P54753).
T2 sequence (whole entry): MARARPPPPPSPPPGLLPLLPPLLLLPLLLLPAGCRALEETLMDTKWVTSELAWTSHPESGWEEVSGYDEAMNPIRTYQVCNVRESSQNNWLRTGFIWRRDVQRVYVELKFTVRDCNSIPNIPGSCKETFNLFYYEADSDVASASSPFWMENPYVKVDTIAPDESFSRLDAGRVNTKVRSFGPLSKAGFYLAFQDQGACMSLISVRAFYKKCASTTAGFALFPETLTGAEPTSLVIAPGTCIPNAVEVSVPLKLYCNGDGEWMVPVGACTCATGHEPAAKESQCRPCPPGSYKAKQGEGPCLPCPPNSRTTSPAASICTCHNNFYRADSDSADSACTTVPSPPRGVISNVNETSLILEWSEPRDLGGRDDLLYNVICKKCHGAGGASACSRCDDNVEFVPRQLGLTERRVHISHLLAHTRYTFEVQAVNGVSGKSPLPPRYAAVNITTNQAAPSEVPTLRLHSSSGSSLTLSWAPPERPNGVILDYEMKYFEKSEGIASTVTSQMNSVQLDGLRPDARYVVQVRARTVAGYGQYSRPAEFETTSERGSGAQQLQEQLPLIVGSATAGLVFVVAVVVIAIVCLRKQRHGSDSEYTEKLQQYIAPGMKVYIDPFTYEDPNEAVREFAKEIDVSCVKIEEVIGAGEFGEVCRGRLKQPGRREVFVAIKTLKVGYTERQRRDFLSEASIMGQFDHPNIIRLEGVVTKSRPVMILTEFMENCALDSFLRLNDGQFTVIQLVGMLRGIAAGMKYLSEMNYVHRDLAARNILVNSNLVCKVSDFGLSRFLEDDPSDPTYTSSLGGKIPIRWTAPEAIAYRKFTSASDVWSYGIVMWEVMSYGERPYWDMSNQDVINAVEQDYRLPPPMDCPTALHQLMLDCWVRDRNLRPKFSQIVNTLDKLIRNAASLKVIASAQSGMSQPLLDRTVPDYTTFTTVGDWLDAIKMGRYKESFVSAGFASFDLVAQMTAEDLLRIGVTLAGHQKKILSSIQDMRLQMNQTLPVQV
As to the kind of experiment: Residual activity of human EPHB3 using poly[Glu:Tyr] (4:1) as substrate at 1 uM in presence of 32P-ATP by Hotspot assay relative to control.

Experiment [6] concerns Peritoneal macrophage cell. The experiment can be described thus: Inhibition of TNF-alpha induced necroptosis in thioglycolate-elicited mouse peritoneal macrophage assessed as increase in cell viability at 0.04 to 1 uM incubated for 24 hrs in presence of zVAD and SMAC007 by Cell Titer-Glo luminescent cell viability assay. Type of experiment: functional, cell-based. The conditions noted are these: dose 0.04-1 µM. In general terms: In ATP-based viability assays light output follows the ATP content of the culture.

Calls of active or inactive are those of the source. The calls are words filed in the database; no cut-off is given here.

Chain of Focal adhesion kinase 1 (Homo sapiens) (Q05397 2-1052 limits assumed): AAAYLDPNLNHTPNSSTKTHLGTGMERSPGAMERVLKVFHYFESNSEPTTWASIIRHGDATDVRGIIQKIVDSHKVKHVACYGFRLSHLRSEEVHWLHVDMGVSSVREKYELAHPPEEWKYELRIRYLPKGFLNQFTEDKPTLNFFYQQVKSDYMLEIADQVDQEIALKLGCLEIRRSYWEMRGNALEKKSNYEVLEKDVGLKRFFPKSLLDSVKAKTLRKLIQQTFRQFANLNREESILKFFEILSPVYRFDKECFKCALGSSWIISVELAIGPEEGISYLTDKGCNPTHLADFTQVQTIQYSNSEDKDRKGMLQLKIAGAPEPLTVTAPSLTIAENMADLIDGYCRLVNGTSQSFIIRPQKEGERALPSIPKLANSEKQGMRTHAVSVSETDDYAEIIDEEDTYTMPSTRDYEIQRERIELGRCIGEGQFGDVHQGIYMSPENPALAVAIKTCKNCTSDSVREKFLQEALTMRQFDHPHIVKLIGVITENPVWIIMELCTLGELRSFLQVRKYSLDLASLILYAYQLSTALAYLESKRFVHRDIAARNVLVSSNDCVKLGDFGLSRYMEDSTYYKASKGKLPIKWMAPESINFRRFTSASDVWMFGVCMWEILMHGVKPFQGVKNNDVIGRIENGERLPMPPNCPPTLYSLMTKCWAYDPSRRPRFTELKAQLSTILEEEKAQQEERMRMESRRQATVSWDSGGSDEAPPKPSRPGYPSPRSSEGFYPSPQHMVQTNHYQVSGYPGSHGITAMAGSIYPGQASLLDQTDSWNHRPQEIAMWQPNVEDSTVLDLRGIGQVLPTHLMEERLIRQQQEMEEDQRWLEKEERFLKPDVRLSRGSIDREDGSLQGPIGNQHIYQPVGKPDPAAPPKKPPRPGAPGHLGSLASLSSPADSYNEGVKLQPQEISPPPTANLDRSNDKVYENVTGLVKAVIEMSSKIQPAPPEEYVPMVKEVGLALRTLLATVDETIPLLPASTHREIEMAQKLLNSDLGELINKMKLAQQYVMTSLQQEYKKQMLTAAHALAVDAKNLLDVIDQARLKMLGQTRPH
Chain of Fibroblast growth factor receptor 2 (Homo sapiens) (P21802 22-821 limits assumed): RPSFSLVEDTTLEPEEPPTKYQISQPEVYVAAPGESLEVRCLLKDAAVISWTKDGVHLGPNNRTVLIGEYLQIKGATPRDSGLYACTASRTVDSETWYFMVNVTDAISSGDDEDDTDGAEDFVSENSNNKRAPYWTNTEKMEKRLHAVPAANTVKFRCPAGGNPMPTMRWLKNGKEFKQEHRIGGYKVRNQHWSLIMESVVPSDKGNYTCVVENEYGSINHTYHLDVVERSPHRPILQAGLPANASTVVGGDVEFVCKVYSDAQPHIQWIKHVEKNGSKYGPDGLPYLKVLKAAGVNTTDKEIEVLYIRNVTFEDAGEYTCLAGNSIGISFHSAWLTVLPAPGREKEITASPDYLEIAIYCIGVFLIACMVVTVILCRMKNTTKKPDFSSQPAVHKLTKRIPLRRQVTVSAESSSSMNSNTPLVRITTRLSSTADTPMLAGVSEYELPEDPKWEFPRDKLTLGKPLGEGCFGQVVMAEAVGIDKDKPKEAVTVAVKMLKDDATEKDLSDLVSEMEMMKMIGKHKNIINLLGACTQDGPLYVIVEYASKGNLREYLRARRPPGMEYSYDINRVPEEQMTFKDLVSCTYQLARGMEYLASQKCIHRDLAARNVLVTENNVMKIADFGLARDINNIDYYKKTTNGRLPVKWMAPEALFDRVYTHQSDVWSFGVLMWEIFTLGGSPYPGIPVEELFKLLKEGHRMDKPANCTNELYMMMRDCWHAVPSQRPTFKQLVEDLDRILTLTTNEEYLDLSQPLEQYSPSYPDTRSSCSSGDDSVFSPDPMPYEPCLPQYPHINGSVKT
Chain of Mitogen-activated protein kinase kinase kinase 14 (Homo sapiens) (Q99558 whole entry, looked up): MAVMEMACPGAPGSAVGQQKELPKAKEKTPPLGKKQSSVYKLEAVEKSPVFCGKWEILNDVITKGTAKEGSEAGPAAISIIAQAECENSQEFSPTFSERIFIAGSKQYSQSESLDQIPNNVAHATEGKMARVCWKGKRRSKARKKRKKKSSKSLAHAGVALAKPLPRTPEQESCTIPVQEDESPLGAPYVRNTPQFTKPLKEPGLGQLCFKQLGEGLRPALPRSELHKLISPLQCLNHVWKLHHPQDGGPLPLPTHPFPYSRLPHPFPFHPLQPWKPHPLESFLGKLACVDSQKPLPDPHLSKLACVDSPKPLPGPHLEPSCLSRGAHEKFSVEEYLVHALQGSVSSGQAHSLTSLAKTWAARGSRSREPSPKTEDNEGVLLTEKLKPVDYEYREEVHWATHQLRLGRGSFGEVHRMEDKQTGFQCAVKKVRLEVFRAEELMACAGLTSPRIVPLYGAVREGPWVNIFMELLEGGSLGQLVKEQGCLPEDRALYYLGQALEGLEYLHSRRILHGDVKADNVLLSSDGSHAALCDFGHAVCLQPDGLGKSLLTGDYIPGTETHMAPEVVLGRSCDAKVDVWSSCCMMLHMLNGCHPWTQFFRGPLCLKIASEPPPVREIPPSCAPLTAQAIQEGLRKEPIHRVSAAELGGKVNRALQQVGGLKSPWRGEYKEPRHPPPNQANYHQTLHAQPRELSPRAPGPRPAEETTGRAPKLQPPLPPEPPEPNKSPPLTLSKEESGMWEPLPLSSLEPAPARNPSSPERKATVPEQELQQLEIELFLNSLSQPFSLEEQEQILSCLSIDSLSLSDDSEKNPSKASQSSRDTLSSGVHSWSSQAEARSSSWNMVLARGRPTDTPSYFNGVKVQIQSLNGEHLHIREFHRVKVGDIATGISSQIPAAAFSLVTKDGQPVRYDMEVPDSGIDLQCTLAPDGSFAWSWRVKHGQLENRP

In the case of `CC(C)S(=O)(=O)c1ccc2nccc(Nc3ccc4scnc4c3)c2c1`, the residual activity in experiment [1] is 96.1%; in experiment [2], 73.7%; in experiment [3] it was 93.9%; in experiment [4], 89.5%; in experiment [5], 61.2%. Also, the inhibition result in experiment [6] is “Active”.

As to `CNC(=O)c1ccc2c(c1)ncn2-c1ccc(CC(=O)OC(C)(C)C)cc1`, the residual activity was 84.2% in experiment [1]; 66.7% in experiment [2]; 102% in experiment [3]; 95.3% in experiment [4]; 93.6% in experiment [5]. Also, the inhibition entry in experiment [6] is “inactive”.

Consider `Cc1cc(-c2cnc(N)c3c(-c4ccc5scnc5c4)csc23)n(C)n1`, for which the residual activity in experiment [1] turned out to be 105%; in experiment [2], 61.7%; in experiment [3] it was 97.3%; in experiment [4], 92.9%; in experiment [5], 91.4%. Moreover, the inhibition result in experiment [6] was “Active”.
